Source: patent publication US9221809B2 (MERCK SHARP & DOHME CORP., priority 2011, dated 2015)
Structures can show the parent of a compound that is named as a salt. Where two headings read alike, the source gives them in different places.

Target: IRAK4 (Homo sapiens (Human), UniProt Q9NWZ3)
Assay: IRAK4 kinase activity, IMAP fluorescence polarization assay
Format: biochemical
Conditions: 100 μM ATP
Description: The kinase activity of IRAK4 is determined by its ability to catalyze the phosphorylation of a fluorescent polypeptide substrate. The extent of phosphorylation is measured using IMAP technology (Molecular Devices) where the phosphorylated fluorescent substrate binds to the large M(III)-based nanoparticles which reduces the rotational speed of the substrate and thus increases its fluorescent polarization (FP).
Assay Procedure: A 20 μl reaction mixture contains 10 mM TriHCl, pH 7.2, 0.5 nM GST tagged IRAK4 (SignalChem), 100 nM fluorescent peptide substrate (RP7030, Molecular Devices), 100 μM ATP, 1 mM DTT, 1 mM MgCl2, and 0.01% Tween 20. The reaction is initiated by the addition of ATP. After incubation for 30 minutes at 25° C., 60 μl of Progressive IMAP Reagent (Molecular Devices) is added to stop the reaction. Change in RP7030's FP is determined by a FP reader (Analyst HT, LJL BioSystems)

[1] = 0.5 nM GST tagged IRAK4, read-out: IRAK4 IC50
[2] = unit inferred, read-out: IRAK4 IC50

IRAK4, sequence (Q9NWZ3 whole entry): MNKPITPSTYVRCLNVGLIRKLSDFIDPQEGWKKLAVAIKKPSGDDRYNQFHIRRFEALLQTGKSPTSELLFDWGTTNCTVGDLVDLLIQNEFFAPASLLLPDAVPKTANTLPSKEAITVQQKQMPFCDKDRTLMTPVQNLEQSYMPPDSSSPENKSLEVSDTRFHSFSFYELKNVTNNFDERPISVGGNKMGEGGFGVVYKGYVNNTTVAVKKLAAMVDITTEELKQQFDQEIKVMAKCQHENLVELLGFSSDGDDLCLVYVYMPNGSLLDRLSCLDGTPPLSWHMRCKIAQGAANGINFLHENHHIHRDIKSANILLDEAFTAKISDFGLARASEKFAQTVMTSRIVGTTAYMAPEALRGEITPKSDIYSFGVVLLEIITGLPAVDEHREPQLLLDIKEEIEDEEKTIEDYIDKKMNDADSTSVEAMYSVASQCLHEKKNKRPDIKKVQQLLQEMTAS

| Structure (SMILES) | IC50 [1] [nM] | IC50 (read-out: IC50) [nM] | further results |
| --- | --- | --- | --- |
| CNC(=O)N1CCC(c2nc(N[C@@H]3CCCNC3)c(-c3nc4ccccc4s3)c(=O)[nH]2)CC1 [Example 240, (R)-4-[5-(1,3-benzo-thiazol-2-yl)-6-oxo-4-[[(3R)-piperidin-3-yl]amino]-1,6-dihydro-pyrimidin-2-yl]-N-methyl-piperidine-1-carboxamide] | – | 200 | – |
| CC1CCC(Nc2nc(N3CCOCC3)[nH]c(=O)c2-c2ccc3ccccc3n2)CN1 (stereo not drawn) [Example 107, 6-((6-methylpiperidin-3-yl)amino)-2-morpholino-5-(quinolin-2-yl)pyrimidin-4(3H)-one.HCl] | 91 | – | – |
| O=c1[nH]c(N2CCOCC2)nc(NC2CN3CCC2CC3)c1-c1nc2ccccc2s1 (stereo not drawn) [Example 208, 5-(benzo[d]thiazol-2-yl)-2-morpholino-6-(quinolidin-3-ylamino)pyrimidin-4(3H)-one] | – | 50 | – |
| O=c1[nH]c(N2CCCCC2)nc(N[C@@H]2CCCNC2)c1-c1ccc2ccccc2n1 [Example 115, (R)-2-(piperidin-1-yl)-6-(piperidin-3-ylamino)-5-(quinolin-2-yl)pyrimidin-4(3H)-one.HCl] | 54 | – | – |
| O=c1[nH]c(N2CCC(c3ccccn3)C2)nc(N[C@@H]2C[C@H](CO)[C@@H](O)[C@H]2O)c1-c1nc2ccccc2s1 (stereo partly drawn) [Example 82, 5-(benzo[d]thiazol-2-yl)-6-((1R,2S,3R,4R)-2,3-dihydroxy-4-(hydroxymethyl)cyclopentylamino)-2-(3-(pyridin-2-yl)pyrrolidin-1-yl)pyrimidin-4(3H)-one] | – | – | IC50 [2]: 197 nM |
| C[C@@H]1COCCN1c1nc(N[C@@H]2CCCNC2)c(-c2nc3ccccc3s2)c(=O)[nH]1 [Example 127] | – | – | IC50 (read-out: IRAK4 IC50): 1690 nM |
| N#Cc1ccc2sc(-c3c(N[C@@H]4CCCNC4)nc(N4CCOCC4)[nH]c3=O)nc2c1 [Example 348, 2-[2-(morpholin-4-yl)-6-oxo-4-[[(3R)-piperidin-3-yl]amino]-1,6-dihydropyrimidin-5-yl]-1,3-benzothiazole-5-carbonitrile] | 5 | – | – |
| O=c1[nH]c(N2CC[C@@H](CO)C2)nc(N[C@@H]2CCCNC2)c1-c1ccc2ccccc2n1 [Example 179, 2-((R)-3-(hydroxymethyl)pyrrolidin-1-yl)-6-((R)-piperidin-3-ylamino)-5-(quinolin-2-yl)pyrimidin-4(3H)-one] | – | – | IC50 (read-out: IRAK4 IC50): 13 nM |
| O=c1[nH]c(N2CCOCC2)nc(N[C@@H]2CCCNC2)c1-c1nc2cccc(C(F)(F)F)c2s1 [Example 338, (R)-2-morpholino-6-(piperidin-3-ylamino)-5-(7-(trifluoromethyl)benzo[d]thiazol-2-yl)pyrimidin-4(3H)-one] | 520 | – | – |
| CO[C@H]1CN(c2nc(N[C@@H]3CCCNC3)c(-c3ccc4ccccc4n3)c(=O)[nH]2)C[C@@H]1O [Example 173, 2-((3S,4S)-3-hydroxy-4-methoxypyrrolidin-1-yl)-6-((R)-piperidin-3-ylamino)-5-(quinolin-2-yl)pyrimidin-4(3H)-one] | – | – | IC50 (read-out: IRAK4 IC50): 40 nM |
| CC(=O)N1CCC2(CCN(c3nc(N[C@@H]4CCCNC4)c(-c4nc5ccccc5s4)c(=O)[nH]3)C2)C1 (stereo partly drawn) [Example 326, 2-[7-acetyl-2,7-diazaspiro[4.4]nonan-2-yl]-5-(1,3-benzothiazol-2-yl)-6-[[(3R)-piperidin-3-yl]amino]-3,4-dihydropyrimidin-4-one] | – | 13 | – |
| O=c1[nH]c(N2CCC(Cn3cccn3)CC2)nc(N[C@@H]2C[C@H](CO)[C@@H](O)[C@H]2O)c1-c1nc2ccccc2s1 [Example 80, 2-(4-((1H-pyrazol-1-yl)methyl)piperidin-1-yl)-5-(benzo[d]thiazol-2-yl)-6-((1R,2S,3R,4R)-2,3-dihydroxy-4-(hydroxymethyl)cyclopentylamino)pyrimidin-4(3H)-one] | – | – | IC50 [2]: 119 nM |
| O=c1[nH]c(N2CCC(c3ccccc3)CC2)nc(N[C@@H]2CCCNC2)c1-c1ccc2ccccc2n1 [Example 187, (R)-2-(4-phenylpiperidin-1-yl)-6-(piperidin-3-ylamino)-5-(quinolin-2-yl)pyrimidin-4(3H)-one] | – | – | IC50 (read-out: IRAK4 IC50): 16 nM |
| O=c1[nH]c(N2CCN(c3ccc(Cl)c(Cl)c3)CC2)nc(N[C@@H]2CCCNC2)c1-c1nc2ccccc2s1 [Example 153, (R)-5-(benzo[d]thiazol-2-yl)-2-(4-(3,4-dichlorophenyl)piperazin-1-yl)-6-(piperidin-3-ylamino)pyrimidin-4(3H)-one] | – | – | IC50 (read-out: IRAK4 IC50): 57 nM |
| CS(=O)(=O)c1ccccc1N1CCN(c2nc(N[C@@H]3CCCNC3)c(-c3nc4ccccc4s3)c(=O)[nH]2)CC1 [Example 156, (R)-5-(benzo[d]thiazol-2-yl)-2-(4-(2-(methylsulfonyl)phenyl)piperazin-1-yl)-6-(piperidin-3-ylamino)pyrimidin-4(3H)-one] | – | – | IC50 (read-out: IRAK4 IC50): 9 nM |
| O=c1[nH]c(N2CCC(c3ccccn3)CC2)nc(N[C@@H]2C[C@H](CO)[C@@H](O)[C@H]2O)c1-c1nc2ccccc2s1 [Example 78, 5-(benzo[d]thiazol-2-yl)-6-((1R,2S,3R,4R)-2,3-dihydroxy-4-(hydroxymethyl)cyclopentylamino)-2-(4-(pyridin-2-yl)piperidin-1-yl)pyrimidin-4(3H)-one] | – | – | IC50 [2]: 36 nM |
| O=c1[nH]c(N2CCOCC2)nc(N[C@@H]2CCCNC2)c1-c1nc(-c2ccc(OC(F)(F)F)cc2)cs1 [Example 103, (R)-2-morpholino-6-(piperidin-3-ylamino)-5-(4-(4-(trifluoromethoxy)phenyl)thiazol-2-yl)pyrimidin-4(3H)-one.HCl] | 2250 | – | – |
| O=c1[nH]c(N2CCOCC2)nc(NCCN2CCC(O)CC2)c1-c1ccc2ccccc2n1 [Example 282, 6-[[2-(4-hydroxypiperidin-1-yl)ethyl]amino]-2-(morpholin-4-yl)-5-(quinolin-2-yl)-3,4-dihydropyrimidin-4-one] | – | 2200 | – |
| Cc1ccccc1C1CCN(c2nc(N[C@@H]3CCCNC3)c(-c3ccc4ccccc4n3)c(=O)[nH]2)CC1 [Example 188, (R)-6-(piperidin-3-ylamino)-5-(quinolin-2-yl)-2-(4-(o-tolyl)piperidin-1-yl)pyrimidin-4(3H)-one] | – | – | IC50 (read-out: IRAK4 IC50): 17 nM |
| O=c1[nH]c(N2CCOCC2)nc(N[C@@H]2CCCNC2)c1-c1nc(C2CC2)cs1 [Example 100, (R)-5-(4-cyclopropylthiazol-2-yl)-2-morpholino-6-(piperidin-3-ylamino)pyrimidin-4(3H)-one.HCl] | 433 | – | – |

Further lines, with some results ahead:

| IC50 [1] [nM] | IC50 (read-out: IC50) [nM] | Structure (SMILES) | further results |
| --- | --- | --- | --- |
| 18 | – | O=c1[nH]c(N2CCCC2)nc(N[C@@H]2C[C@H](CO)[C@@H](O)[C@H]2O)c1-c1nc2ccccc2s1 [Example 25, 5-(Benzo[d]thiazol-2-yl)-6-(((1R,2S,3R,4R)-2,3-dihydroxy-4-(hydroxymethyl)cyclopentyl)amino)-2-(pyrrolidin-1-yl)pyrimidin-4(3H)-one.HCl] | – |
| 545 | – | CS(=O)(=O)N1CCC(Nc2nc(N[C@@H]3C[C@H](CO)[C@@H](O)[C@H]3O)c(-c3nc4ccccc4s3)c(=O)[nH]2)CC1 [Example 10, 5-(Benzo[d]thiazol-2-yl)-6-((1R,2S,3R,4R)-2,3-dihydroxy-4-(hydroxymethyl)cyclopentylamino)-2-(1-(methylsulfonyl)piperidin-4-ylamino)pyrimidin-4(3H)-one.HCl] | – |
| – | 3900 | NC(=O)CNc1nc(N2CCOCC2)[nH]c(=O)c1-c1nc2ccccc2s1 [Example 249, 2-[[5-(1,3-benzothiazol-2-yl)-2-(morpholin-4-yl)-6-oxo-1,6-dihydropyrimidin-4-yl]amino]acetamide] | – |
| – | 100 | O=C(NC1CCN(c2nc(N[C@@H]3CCCNC3)c(-c3nc4ccccc4s3)c(=O)[nH]2)CC1)OCc1ccccc1 [Example 323, Benzyl N-[1-[5-(1,3-benzothiazol-2-yl)-6-oxo-4-[[(3R)-piperidin-3-yl]amino]-1,6-dihydropyrimidin-2-yl]piperidin-4-yl]carbamate trifluoroacetic acid] | – |
| 8100 | – | O=c1[nH]c(N2CCOCC2)nc(NCC(O)CO)c1-c1nc2ccccc2s1 (stereo not drawn) [Example 246, 5-(1,3-benzothiazol-2-yl)-6-[(2,3-dihydroxypropyl)amino]-2-(morpholin-4-yl)-3,4-dihydropyrimidin-4-one] | – |
| – | 330 | O=c1[nH]c(N2CCOCC2)nc(NCC2CCNCC2)c1-c1nc2ccccc2s1 [Example 271, 5-(1,3-benzothiazol-2-yl)-2-(morpholin-4-yl)-6-[(piperidin-4-ylmethyl)amino]-3,4-dihydropyrimidin-4-one; trifluoroacetic acid] | – |
| – | 43 | O=c1[nH]c(N2CCOC(CO)C2)nc(N[C@@H]2CCCNC2)c1-c1nc2ccccc2s1 (stereo partly drawn) [Example 285, 5-(1,3-benzothiazol-2-yl)-2-[2-(hydroxymethyl)morpholin-4-yl]-6-[[(3R)-piperidin-3-yl]amino]-3,4-dihydropyrimidin-4-one] | – |
| – | 110 | CNC(=O)C1CN(c2nc(N[C@@H]3CCCNC3)c(-c3nc4ccccc4s3)c(=O)[nH]2)CCO1 (stereo partly drawn) [Example 287, 4-(5-(benzo[d]thiazol-2-yl)-6-oxo-4-((R)-piperidin-3-ylamino)-1,6-dihydropyrimidin-2-yl)-N-methylmorpholine-2-carboxamide] | – |
| – | 260 | O=c1[nH]c(C2CCN(c3ncccn3)CC2)nc(N[C@@H]2CCCNC2)c1-c1nc2ccccc2s1 [Example 244, (R)-5-(benzo[d]thiazol-2-yl)-6-(piperidin-3-ylamino)-2-(1-(pyrimidin-2-yl)piperidin-4-yl)pyrimidin-4(3H)-one] | – |
| 345 | – | O=c1[nH]c(Nc2cncnc2)nc(N[C@@H]2C[C@H](CO)[C@@H](O)[C@H]2O)c1-c1nc2ccccc2s1 [Example 51, 5-(Benzo[d]thiazol-2-yl)-6-(((1R,2S,3R,4R)-2,3-dihydroxy-4-(hydroxymethyl)cyclopentyl)amino)-2-(pyrimidin-5-ylamino)pyrimidin-4(3H)-one.HCl] | – |
